# “And” between values parts separate entries of the source, which are not always exact repeats. Equal values may be shown once.
# Legend:
# [1] = system: tumor tissues of orthotopic rat colorectal carcinoma; assay: Immunohistochemical analysis of tumor tissues; format: in vivo, Wistar rats; conditions: 25 mg/kg, vs saline-treated group
# Protocol: The procedure was performed following our pre-standardized protocol with minor modifications. Paraffin-embedded tissue sections were prepared from the tumors of saline, 5-FU, and 4DPG-treated groups of animals. Primary antibodies used: p-Chk2 (T68), Chk2, p53, p-Vimentin (S38) and Vimentin at 1:150 dilution for overnight at 4 °C.
# [2] = Pharmacokinetic study, single i.v. dose; format: in vivo; conditions: 5 mg/kg i.v. single dose, Balb/c mice
# Protocol: Subsequently, to evaluate the exposure of 4DPG in healthy animals, we performed PK analysis in Balb/c mice by administering a single dose (5 mg/kg) of the compound intravenously.
# The PK studies were performed following our standardized procedure with minor modifications. To determine the PK profile of 4DPG, healthy male Balb/c mice (body weight 25–30 g each) were employed in the study. Six animals were enrolled for each sampling time point and a total of 11 time points (0.083, 0.25, 0.5, 1, 2, 4, 6, 8, 12, 16, and 24 h) were involved in the study. Control group of mice were administered with saline and test groups of animals received a single dose of 4DPG (5 mg/kg, body weight) intravenously. After the successful injections of the molecule, 100 µL of plasma was collected from each animal enrolled at the above sampling time points and the plasma proteins were precipitated with 400 µL of acetonitrile. Following extraction into the solvent and subsequent filtration, the compound was analyzed using a 6410 triple-quadrupole LC–MS/MS system (Agilent Technologies, USA). Individual samples collected at each time point were quantified through single ion monitoring (SIM) by comparing with the standard calibration curve prepared using Agilent Mass Hunter software (version B.04.00) (detailed description is provided in Supplementary information file). Essential PK parameters such as half-life (t1/2), C initial (C0), area under the curve (AUC0–∞), volume of distribution (Vd), clearance (Cl), and mean residence time (MRT) were calculated utilizing noncompartmental pharmacokinetic data analysis.
# Solubility determination = format: physicochemical
# Protocol: Solubility and distribution coefficient are among the major physicochemical properties of a drug that greatly determine its absorption in physiological compartments. […] The distribution coefficient (logD, pH 7.4) of 4DPG was determined to be 0.815 ± 0.19, which indicates the slightly lipophilic nature of the molecule. For administration to animals, the appropriate quantity of 4DPG was formulated in the pre-calculated volume of saline with the help of a solubilizer (Tween-80). Next, to assess the hemocompatibility of 4DPG and establish if the compound could be considered safe for intravenous (i.v.) administration, we performed in vitro hemolysis assay by incubating the RBCs with increasing concentrations of the molecule.
# The distribution coefficient, solubility, and hemocompatibility of 4DPG was determined adopting our previously described protocol[37],[40]. For hemolysis assay, increasing concentrations (5, 10, and 20 µg/mL) of 4DPG were employed. Distilled water (DW) and PBS were considered as […].
# SW-620/5-FU-R cells = assay: In situ fluorescent gelatin degradation assay (invadopodia); format: cell-based; conditions: 48 h, vs vehicle
# Excerpt: (§1) 4DPG, a podophyllotoxin class of natural product anticancer compound (Supplementary Fig. S2A) has been recently described by our research group for its potent antitumor and anti-metastatic properties against aggressive cancers[31],[32]. Further, 4DPG augments phosphorylation and activation of Chk2 (Thr68) leading to suppression of EMT and invasiveness of p53-defective cancer cells. To investigate the effect of 4DPG on phosphorylation and expression levels of Chk2 in HCT-116/5-FU-R, SW-620/5-FU-R, and HT-29/5-FU-R cells, we treated these cells for 48 h with increasing concentrations of the compound, and whole-cell lysates were subjected to western blotting analysis. […] To determine the effect of 4DPG on the invasion abilities of these 5-FU-R cells, we performed in situ fluorescent gelatin degradation assay following our pre-standardized protocol[31],[37]. In physiological conditions, this assay mimics the extracellular matrix degradation by aggressive tumor cells undergoing invasion–metastasis process.
# (§2) Fig. 2 4DPG activates Chk2 and attenuates EMT in 5-FU-R CRC cells. […] G Quantification of the area of degradation through Image J software. n = 3, error bars, mean ± SD; ***P < 0.001. […]
# HCT-116/5-FU-R cells = assay: Immunocytochemistry of Vimentin; format: cell-based; conditions: 300 nM, 48 h
# Excerpt: as §1, §2
smiles,measurement,setting,value
"COc1cc([C@@H]2c3cc4c(cc3C[C@H]3COC(=O)[C@@H]32)OCO4)cc(OC)c1O[C@@H]1O[C@H](CO)[C@@H](O)[C@H](O)[C@H]1O [4DPG, 4′-demethyl-deoxypodophyllotoxin glucoside]",p-Vimentin (ser38) and Vimentin expression levels in tumor tissues (immunohistochemistry),[1],decreased
same,protein levels of p-Chk2 (Thr68) and p53 in tumor tissues (immunohistochemistry),[1],marked increase
same,Area under curve (AUC0-t),[2],10068.884 ng·h/mL
same,Area under curve (AUC0-∞),[2],10104.05 ng·h/mL and 10104.053 ng·h/mL
same,Clearance (Cl),[2],8.25 mL/min/kg
same,Half-life (t1/2),[2],39.2 min
same,Mean residence time (MRT),[2],18.4 min
same,Volume of distribution (Vd),[2],0.466 L/kg
same,C initial (C0),[2]; plasma,10165.18 ng/mL
same,solubility,"Solubility determination; simulated gastric fluid (SGF, pH 1.2)",539.38 ± 91 µg/mL
same,solubility,"Solubility determination; simulated intestinal fluid (SIF, pH 6.8)",712.92 ± 172 µg/mL
same,invadopodia formation and area of degradation over the gelatin matrix,SW-620/5-FU-R cells,significantly reduced
same,Vimentin expression level (immunocytochemistry),HCT-116/5-FU-R cells,considerable decrease
